Here are results for four compounds from US20060035365A1, “Method for identifying cellular growth inhibitors” (priority 2002, published 2006).

Assay [1] deals with S. aureus strain SafabF/GFP. Nature of the assay: Liquid GFP reporter assay for fabF antisense revertants (Relative Fluorescence Index). The format is cell-based, Staphylococcus aureus. The conditions noted are these: for change of RFI with increasing xylose concentration: 0, 7 and 14 mM xylose, drug concentrations approximating 50% inhibition of growth in no-xylose cells, 16 hours. From the text:
The green fluorescent protein (GFP) reporter gene was used to identify fabF antisense revertants in liquid culture by the following method: S. aureus containing a plasmid encoding the antisense fabF DNA was used to develop an inducible GFP reporter system, where the GFP gene is transcriptionally silent until the fabF antisense containing plasmid DNA is deleted or rearranged. A plasmid, pM310, was constructed that consists of the fabF antisense vector (Forsyth et al, 2002), with a tetracycline repressor gene and its promoter (Geissendorfer et al., Appl. Microbiol. Biotechnol 1990, 33: 657-663) inserted downstream of the fabP antisense DNA. A second plasmid, pM302, was constructed that consists of the E. coli vector pUC19 (Gibco BRL) joined to the S. aureus vector pUB110 (ATCC 37015), through the EcoR1 and AatII restriction sites. At the pUC19 multicloning site, a GFP gene was inserted into the BamH1 and SalI restriction sites and a tetracycline operator containing promoter (Geissendorfer et al, 1990) was cloned into the EcoR1 and BamH1 sites. A S. aureus strain, SafabF/GFP, was constructed that contained both plasmids pM310 and pM302 and was resistant to chloramphenicol and kanamycin. SafabF/GFP was sensitive to xylose induction resulting in an increased sensitivity to cerulenin. In the presence of cerulenin, resistant revertants will be selected for, which have deleted the antisense vector, and along with this deletion, lost the tetracycline repressor gene. […] Revertants can be measured as a function of fluorescent readout relative to cell number.
To quantitatively measure the fabF revertants, a liquid assay was developed, where various concentrations of xylose were tested with various concentrations of the following test compounds: cerulenin, thiostrepton and ampicillin. […] A 96-well plate was used to measure growth of the culture and final absorbance after 16 hours of incubation at 37° C. […] The final absorbance as read at 590 nm (A590) and fluorescence of the GFP was measured by excitation at 485 nm wavelength and emission wavelength at 535 nm (E535), using a Tecan Spectrafluor Plus.
To detect a specific GFP response in the presence of a fabF selective inhibitor, cerulenin, the Relative Fluorescence Index (RFI) was calculated for each drug treatment and for each xylose treatment. The RFI is defined as E535/A590 ratio, normalized to the corresponding ratio calculated on no-xylose control cells within each drug test group. For instance, with 15 μg/ml cerulenin treatment, the E535/A590 ratio was calculated for 0, 7 and 14 mM xylose treated cells, and the ratio for each were divided by the E535/A590 ratio from the no-xylose treated cells. […]

Assay [2] relates to S. aureus containing S1-1941, a plasmid expressing a xylose-inducible fabF anti-sense RNA. Nature of the assay: Agar assay for fabF-acting substances: revertant colonies in the zone of inhibition. The format is cell-based, Staphylococcus aureus. The conditions noted are these: for appearance of revertant colonies / zone of growth inhibition on assay plate: 10 μL sample per well, thiotetramycin 1 mg/mL in DMSO, cerulenin 20 μg/mL in DMSO, kanamycin 100 μg/mL in water, xylose 23.6 mM, overnight 37° C., visual inspection. How it is done: S. aureus containing S1-1941, a plasmid expressing a xylose-inducible fabF anti-sense RNA (described in WO 00/44906 and in Forsyth et al., Mole. Microbiol. 2002, 43: 1387-1400), are inoculated into an LB broth culture medium supplemented with […] of chloramphenicol, and grown overnight at 37° C. with shaking (225 rpm). The culture is then diluted in the LB medium to a final optical density (λ=600 nm) of 0.3. Diluted cells (750 μL) are then added to a molten LB-agar medium (30 mL) supplemented with xylose (23.6 mM) and glucose (0.19 g/100 mL) and equilibrated at 48° C. The molten mixture is briefly mixed and is then poured onto sterile disposable polystyrene 86×128 mm dishes (NUNC Cat. No. 242811), after which a TSP (=transferable solid phase screening system) casting tray (NUNC Cat. No. 445497) is placed on top to cast wells. The dishes are allowed to cool down to room temperature for about 15 minutes and are then stored for no more than 2 days at 4° C. until ready for sample dispensing. Samples (10 μL) of one or more test substances (500 μM) and samples of controls, each dissolved in 100% DMSO, are subsequently dispensed into wells and the plates incubated overnight at 37° C. The incubated plates are then inspected visually for the appearance of revertant colonies to determine whether the test substance(s) act at the fabF protein.
The fabF-targeting control will produce revertant colonies in and around a zone of inhibition, and the non-fabF targeting control will produce a clear zone of inhibition (i.e., devoid of revertant colonies). The zones of inhibition of the test substances are compared to those of the controls to screen for fabF-acting substances.
The assay protocol set forth in Part A was employed to test whether thiotetramycin is a fabF-acting antibacterial agent. A 10 μL sample of thiotetramycin dissolved in 100% DMSO (1 mg/mL) was dispensed into one well of the plate. In addition, a 10 μL sample of cerulenin in 100% DMSO (20 μg/mL) and a 10 μL sample of kanamycin in water (100 μg/mL) were respectively dispensed into two wells as controls. After incubation as described in Part A, the plates were inspected visually for zones of bacterial growth.

On to `CC1(C)S[C@@H]2[C@H](NC(=O)[C@H](N)c3ccccc3)C(=O)N2[C@H]1C(=O)O` [ampicillin], for which the “change of RFI with increasing xylose concentration” value in assay [1] was “No increase in RFI”.
On to `C/C=C/C/C=C/CCC(=O)[C@H]1O[C@H]1C(N)=O` [cerulenin], for which, in assay [1], the “change of RFI with increasing xylose concentration” value is “RFI increased with increasing xylose concentration”. Moreover, in assay [1] (14 mM xylose and 15 μg/ml cerulenin, 16 hours at 37° C., normalized to no-xylose control cells), the “maximum change of Relative Fluorescence Index (RFI)” value was found to be 9 fold. The “appearance of revertant colonies / zone of growth inhibition on assay plate” value in assay [2] is “several visually observable revertant bacterial colonies”; in assay [2] (listed as Cerulenin), “growth of revertant colonies in and around a zone of growth inhibition”.
For `C=C(NC(=O)C(=C)NC(=O)c1csc(C2=N[C@@H]3c4csc(n4)[C@H]4NC(=O)c5csc(n5)[C@H]([C@](C)(O)[C@@H](C)O)NC(=O)[C@H]5CSC(=N5)/C(=C/C)NC(=O)[C@H]([C@@H](C)O)NC(=O)c5csc(n5)[C@]3(CC2)NC(=O)[C@H](C)NC(=O)C(=C)NC(=O)[C@H](C)NC(=O)[C@H]([C@@H](C)CC)N[C@@H]2C=Cc3c([C@H](C)O)cc(nc3[C@H]2O)C(=O)O[C@@H]4C)n1)C(N)=O` [thiostrepton], in assay [1], the “change of RFI with increasing xylose concentration” value is “No increase in RFI”.
Consider thiotetramycin, for which the “appearance of revertant colonies / zone of growth inhibition on assay plate” value in assay [2] is “several visually observable revertant bacterial colonies”; in assay [2] (listed as Thiotetramycin), “growth of revertant colonies which appear as small white foci of growth in and around a zone of growth inhibition”. For the same compound, the “conclusion whether test substance is a fabF-acting antibacterial agent” value in assay [2] (from comparison with cerulenin and kanamycin controls) was “selectively targets the fabF protein”.
